Reference: publication PMC12040169 (PLOS Biology, 2025)

test: in vitro; settings: human, hela cells, % viability

In order of rising viability at 28.5 h, 10 µM:
1. O=[N+]([O-])c1ccc(NCCCNS(=O)(=O)c2ccc3ccccc3c2)c(Cl)c1 [CBK262006]  79.3%
2. CCCN1CCC(N2CCN(CCO)CC2)CC1 [CBK261920]  79.9%
3. O=C(O)CCCNC(=O)c1cncc(O)c1 [CBK262060]  81.8%
4. O=C1c2ccccc2-c2onc3c(NCc4ccccc4)cc(Nc4ccccc4)c1c23 [CBK261979]  84%
5. c1ccc(CCN2CCC(N3CCOCC3)CC2)cc1 [CBK261928]  85.2%
6. Cc1ccc(OCC(O)CN(C)S(=O)(=O)O)c([N+](=O)[O-])c1 (stereo not shown) [CBK262062K]  85.3%
7. CN1CCC(N(C)C2CCN(Cc3ccccc3)CC2)CC1 [CBK261925]  85.8%
8. O=C1Nc2ccc(S(=O)(=O)NCCCO)c3cccc1c23 [CBK262033]  85.9%
9. COc1cc(CN2CCN(c3cc(C)ccc3C)CC2)ccc1OCc1ccccc1 [CBK261898]  86.6%
10. Cc1n[nH]c(C)c1Sc1ccccc1/N=C/c1ccc(C(=O)O)cc1 [CBK262055]  86.9%
11. O=C(NN=Cc1ccc(O)cc1)c1cc[n+](Cc2ccccc2)cc1 [CBK262047C]  87.3%
12. O=C(N/N=C\c1cccc(O)c1)C(=O)N/N=C/c1cccc(O)c1 [CBK261962]  87.6%
13. Nc1ccc(Oc2ccc3nc4c5cc(I)ccc5c5ccc(I)cc5c4nc3c2)cc1 [CBK261978]  87.6%
14. CCSc1nc2ccccc2n1CC(=O)O [CBK262059]  87.7%
15. c1ccc2c(OCCOCCN3CCCCC3)cccc2c1 [CBK262000]  88%
16. COc1ccc(CN2CCN(C)CC2)cc1OCc1ccccc1 [CBK261886]  88.2%
17. CN(C)c1ccc(CN(CCO)CCO)cc1 [CBK261921]  88.3%
18. CC(CCN1CCN(C)CC1)c1ccccc1 (stereo not shown) [CBK261881]  88.5%
19. COc1ccccc1/C=C/CN(C)CCN(C)C [CBK261888]  88.5%
20. NNC(=O)Nc1ccc(Cc2ccc(NC(=O)NN)cc2)cc1 [CBK262017]  88.5%
21. S=C(Nc1ccccc1)NC1C2CN3CCN(C2)CC1(c1ccccc1)C3 (stereo not shown) [CBK261936]  88.6%
22. COc1ccc(CCN(C)Cc2ccccn2)cc1OC [CBK261912]  88.8%
23. CC1(C)CC(NC(=O)CCc2cc(C(C)(C)C)c(O)c(C(C)(C)C)c2)CC(C)(C)N1 [CBK261986]  88.9%
24. O=C(CCC(=O)Nc1ccc(I)cc1)N/N=C/c1ccc(Br)cc1 [CBK262010]  88.9%
25. CC(CCN1CCN(Cc2ccccc2)CC1)c1ccccc1 (stereo not shown) [CBK261902]  89.1%
26. Cc1nn(-c2ccccc2)c(O)c1/C=N/c1ccccc1Sc1c(C)n[nH]c1C [CBK262048]  89.1%
27. N/C(=N\OCC(=O)Nc1cccc([N+](=O)[O-])c1)c1nonc1N [CBK262044]  90%
28. c1ccc(CCCN2CCN(Cc3ccccc3)CC2)cc1 [CBK261878]  90.1%
29. O=C(C[n+]1cccc(C(=O)N/N=C/c2ccc(Br)cc2)c1)c1ccccc1 [CBK262063B]  90.1%
30. O=[N+]([O-])c1ccccc1NC1OCC(O)C(O)C1O (stereo not shown) [CBK262032]  90.3%
31. CC(O)CN(CC(C)O)CC1CC2C=CC1C2 (stereo not shown) [CBK261896]  90.4%
32. COc1ccc(C(CC(=O)O)C(=O)O)cc1OC (stereo not shown) [CBK261943]  90.4%
33. O=C(CNC(=O)c1cccc(Cl)c1)N/N=C/C=C/c1ccccc1 [CBK261947]  90.4%
34. O=[N+]([O-])c1ccc(-c2ccc(/C=N/Nc3nnc4c(n3)[nH]c3ccccc34)o2)cc1 [CBK262029]  90.4%
35. O=C(O)CCNS(=O)(=O)c1ccc(Br)cc1 [CBK261941]  90.6%
36. CC(C)(C)c1cc(CCC(=O)N2CCN(C(=O)CCc3cc(C(C)(C)C)c(O)c(C(C)(C)C)c3)CC2)cc(C(C)(C)C)c1O [CBK261963]  91.1%
37. O=C(OCc1ccccc1)Oc1cncc(C(=O)O)c1 [CBK262053]  91.1%
38. COc1cc(CN2CCN(C/C=C/c3ccccc3)CC2)cc(I)c1O [CBK261882]  91.7%
39. C(=N\Nc1nnc(-c2ccccc2)c(-c2ccccc2)n1)/c1cccnc1 [CBK262025]  91.8%
40. CN(C/C=C/c1ccccc1[N+](=O)[O-])CCc1ccccn1 [CBK261890]  92.5%
41. Oc1ccccc1/C=N/Nc1nnc(-c2ccccc2)c(-c2ccccc2)n1 [CBK262003]  93%
42. Cc1n[nH]c(C)c1Sc1ccccc1/N=C/c1ccccc1O [CBK262068]  93%
43. Cc1ccc(S(=O)(=O)N=C2NCN(CC(=O)O)CN2)cc1 [CBK261983N]  93.6%
44. CCN(CCC(C)c1ccccc1)CCN(C)C (stereo not shown) [CBK261914]  94.6%
45. Fc1ccc(N2CCN(Cc3cccc(OCc4ccccc4)c3)CC2)cc1 [CBK261916]  94.6%
46. CCN(CC)CCN(C)C1CCN(C)CC1 [CBK261917]  94.7%
47. COc1ccc(CN2CCN(c3ccc(F)cc3)CC2)cc1OCc1ccccc1 [CBK261894]  95%
48. Nc1nonc1-n1nnc(C(=O)N/N=C2\CCc3ccccc32)c1-c1ccccc1 [CBK261988]  95.1%
49. COc1ccccc1/C=N/NC(=O)COc1c(Br)cc(Br)cc1Br [CBK261966]  95.2%
50. O=C(N/N=C\c1ccc([N+](=O)[O-])o1)c1nc(-c2ccccc2)cc(-c2ccccc2)n1 [CBK261958]  95.5%
51. Cc1cc(O)n(-c2cc(-c3ccccc3)nc(-c3ccccc3)n2)n1 [CBK262014]  95.5%
52. CCN(CC)CCOc1c(C)cccc1Cl [CBK261950]  95.9%
53. COc1c(O)ccc(/C=N/NC(=O)COc2c(Br)cc(Br)cc2Br)c1[N+](=O)[O-] [CBK261957]  95.9%
54. O=[N+]([O-])c1ccc(NCCNS(=O)(=O)c2ccccc2)cc1 [CBK261948]  96.1%
55. O=C(O)CCSc1nc2ccccc2[nH]1 [CBK262056]  96.2%
56. CN(C)c1ccc(/C=C/CN2CCN(c3ccc([N+](=O)[O-])cc3)CC2)cc1 [CBK261904]  96.9%
57. O=C(CNC(=O)c1ccccc1F)N/N=C/c1cccs1 [CBK261953]  97.8%
58. NNC(=O)CNS(=O)(=O)c1ccccc1 [CBK261967]  97.9%
59. Clc1ccc(/C=N/Nc2nnn[nH]2)c(Cl)c1 [CBK262034]  98%
60. COc1ccc2ccccc2c1CN1CCN(Cc2ccccc2)CC1 [CBK261913]  98.5%
61. CC1(C)CC(NC(=O)C(=O)NC2CC(C)(C)NC(C)(C)C2)CC(C)(C)N1 [CBK261951]  98.9%
62. Cc1cc(I)ccc1NC(=O)CCC(=O)N/N=C/c1ccco1 [CBK261991]  99.4%
63. CN(C)CC(C)(C)CNC=C1C(=O)CC(C)(C)CC1=O [CBK262046]  99.9%
64. CC(C)(C)c1cc(CCCOC(=O)CNc2ccccc2)cc(C(C)(C)C)c1O [CBK261939]  101%
65. CC(C)(C)c1cc(CN(Cc2cc(C(C)(C)C)c(O)c(C(C)(C)C)c2)/N=C\c2ccccc2O)cc(C(C)(C)C)c1O [CBK261990]  101%
66. CC1(C)CC(/N=C(\c2ccccc2)c2ccc(O)cc2O)CC(C)(C)N1 [CBK262004]  101%
67. COc1cccc(CN(C)CCN(C)C)c1O [CBK261905]  102%
68. CCn1c2ccccc2c2cc(CN(CCN(C)C)Cc3ccccc3)ccc21 [CBK261924]  102%
69. CN(C)CCN(C)C1CCN(Cc2ccccc2)CC1 [CBK261930]  102%
70. O=C(CNC(=O)c1ccccc1)N/N=C/c1ccc(C(=O)O)cc1 [CBK261976]  102%
71. C[N+](C)(C)CCC(=O)CCC(=O)O [CBK262012I]  102%
72. COc1cc(/C=N/NC(=O)CNC(=O)c2ccncc2)ccc1O [CBK262013]  102%
73. O=C(CN1C(=O)c2ccccc2C1=O)Nc1cc(C(=O)O)cc(C(=O)O)c1 [CBK262024]  102%
74. C/C(=N\NC(=O)CNC(=O)c1ccc(Br)cc1)c1ccccc1 [CBK262020]  103%
75. Cc1cccc(NC(=O)CCC(=O)N/N=C/c2cccnc2)c1 [CBK262023]  103%
76. COc1ccccc1C(=O)NCC(=O)N/N=C/c1ccc(N(C)C)cc1 [CBK261989]  104%
77. CC(=O)Nc1ccccc1/C=C/c1ccc2c(C)cc(C)c(O)c2n1 [CBK261937]  106%
78. CC(C)(C)c1cc(CN(Cc2cc(C(C)(C)C)c(O)c(C(C)(C)C)c2)C2CCCCC2)cc(C(C)(C)C)c1O [CBK261996]  106%
79. COc1cc(/C=N/CC/N=C/c2ccc(O)c(OC)c2)ccc1O [CBK262015]  106%
80. O=C(Oc1ccc(/C=N/Nc2nc(N3CCOCC3)nc(N3CCOCC3)n2)cc1)c1ccccc1 [CBK262064]  107%
81. OCCN(CCO)CC1CC=CCC1 (stereo not shown) [CBK261907]  108%
82. C(=C\c1ccccc1)/CN1CCN(C2CCN(CCc3ccccc3)CC2)CC1 [CBK261923]  108%
83. O=C(CCC(=O)Nc1ccccc1)N/N=C/c1ccco1 [CBK261968]  108%
84. CC(C)(C)c1cc(CCC(=O)N/N=C/c2ccco2)cc(C(C)(C)C)c1O [CBK261960]  110%
85. C/C(=C\C(=O)NC1CC(C)(C)NC(C)(C)C1)NC1CC(C)(C)NC(C)(C)C1 [CBK261982]  113%
86. c1ccc(C(=NCCN=C(c2ccccc2)c2ccccc2)c2ccccc2)cc1 [CBK262065]  113%
87. Cl/C(=C\c1ccccc1)CN1CCOCC1 [CBK261892]  114%
88. O=C(O)CS(=O)(=O)c1ccc(Cl)cc1 [CBK262036G]  114%
89. CC1(C)CC(=O)C(=CNCCC(c2ccccc2)c2ccccc2)C(=O)C1 [CBK262057]  114%
90. COc1ccc(CN2CCN(c3ccccc3F)CC2)cc1OCc1ccccc1 [CBK261900]  115%
91. OCCN(Cc1ccccc1)Cc1ccc(Cl)c(Cl)c1 [CBK261908]  117%
